Source: PMC8041433 (Environmental Health Perspectives, 2021)
Several values for one entry are separate records, joined by “and”; a condition that tells them apart may be missing. Equal entries are not always repeated. Structures can show the parent of a compound that is named as a salt. Where two headings read alike, the source gives them in different places.

Columns and labels:
recombinant human AChE [1] = target: T1, recombinant human AChE (Homo sapiens, UniProt P22303); experiment: biochemical
T1 sequence (P22303 32-614): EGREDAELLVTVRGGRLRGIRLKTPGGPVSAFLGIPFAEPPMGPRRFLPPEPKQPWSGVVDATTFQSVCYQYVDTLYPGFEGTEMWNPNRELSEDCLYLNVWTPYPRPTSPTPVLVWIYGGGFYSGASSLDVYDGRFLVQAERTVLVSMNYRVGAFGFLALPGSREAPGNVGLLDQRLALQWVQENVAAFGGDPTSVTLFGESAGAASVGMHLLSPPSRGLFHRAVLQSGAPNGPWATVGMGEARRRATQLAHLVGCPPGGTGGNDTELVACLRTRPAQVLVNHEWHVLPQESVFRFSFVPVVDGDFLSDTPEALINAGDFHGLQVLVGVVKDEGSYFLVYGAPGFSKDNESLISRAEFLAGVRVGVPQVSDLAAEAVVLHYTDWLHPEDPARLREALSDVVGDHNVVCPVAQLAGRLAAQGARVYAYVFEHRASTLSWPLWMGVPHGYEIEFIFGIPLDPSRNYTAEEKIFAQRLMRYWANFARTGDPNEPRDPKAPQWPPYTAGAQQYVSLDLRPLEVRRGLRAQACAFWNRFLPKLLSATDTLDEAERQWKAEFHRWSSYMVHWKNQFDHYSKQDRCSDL

recombinant human AChE [2] = target: T1, recombinant human AChE; experiment: biochemical; conditions: IC50 (uM)
recombinant human AChE [3] = target: T1, recombinant human AChE
AChE in SH-SY5Y cells = AChE in SH-SY5Y cells (Homo sapiens, UniProt P22303); experiment: cell-based
Chain of AChE in SH-SY5Y cells (P22303 32-614): as above

recombinant human AChE [4] = target: T1, recombinant human AChE; experiment: biochemical; type: biochemical; conditions: for AC50: AC50 (uM)
recombinant human AChE [5] = target: T1, recombinant human AChE; experiment: biochemical; remark: listed apart in the source
Throughout, for IR or R: key: Reversible (R); Irreversible (IR); ND, not detected in enzyme-based AChE inhibition assay from current study.

Compound | CC-v2 (curve classes) (recombinant human AChE [1]) | Efficacy (recombinant human AChE [1]) | CC-v2 (curve classes) (recombinant human AChE [3]) | Efficacy (recombinant human AChE [3]) | IC50 (AChE in SH-SY5Y cells; IC50 (uM)) | CC-v2 (curve classes) (AChE in SH-SY5Y cells) | other results
O=C(O)CC[N+](=O)[O-] [3-Nitropropionic acid] | -2.1 | -85.687 | -2.2 | -41.028 | 8.94 µM and 11.2 µM and 2.24 µM |  | IC50 (recombinant human AChE [1]; IC50 (uM)): 28.3 µM; IC50 (recombinant human AChE [2]): 71 µM
COc1cc2nc(N(C)CCCNC(=O)C3CCCO3)nc(N)c2cc1OC (centres unmarked) [Alfuzosin hydrochloride, reference compound] |  |  |  |  |  |  | AC50 (recombinant human AChE [4]): 14.7 µM (3×) and 13.1 µM and 7.35 µM and 9.25 µM and 10.4 µM (2×)
COc1ccc(OC(F)(F)F)cc1CN[C@H]1CCCN[C@H]1c1ccccc1 [CP-122721, reference compound] | 4 | 0 | 4 | 0 |  | 4 | potency (IC50), Enzyme-based assay with heat-inactivated microsomes (recombinant human AChE [5]): Inactive; potency (IC50), Enzyme (recombinant human AChE [1]): Inactive; potency (IC50), Enzyme with microsomes (recombinant human AChE [3]): Inactive; potency (IC50), SH-SY5Y cells monolayer (AChE in SH-SY5Y cells): Inactive
CCOP(=O)(OCC)Oc1nc(Cl)c(Cl)cc1Cl [Chlorpyrifos oxon, reference compound] | -1.1 | -95.546 | -1.1 | -96.78 |  | -1.1 | reversibility of AChE inhibition (result in words) (recombinant human AChE [4]): irreversibility
CNC(=O)Oc1cccc(N=CN(C)C)c1 [Formetanate hydrochloride] |  |  |  |  |  |  | AC50 (recombinant human AChE [4]): 63.1 µM and 56.2 µM (2×) and 50.1 µM and 70.7 µM and 44.6 µM and 39.8 µM
Nc1c2c(nc3ccccc13)CCCC2O.O=C(O)/C=C\C(=O)O (centres unmarked) [Hydroxytacrine maleate, reference compound] | -1.1 | -95.079 | -2.1 | -93.06 |  | -1.1 | IR or R (recombinant human AChE [4]): R
CCC1(c2cccc(O)c2)CCCCN(C)C1 (centres unmarked) [Meptazinol hydrochloride, reference compound] |  |  |  |  |  |  | AC50 (recombinant human AChE [4]): 4.64 µM and 9.25 µM and 3.68 µM and 5.2 µM and 8.25 µM and 5.84 µM and 6.55 µM
CN1CCCN=C1/C=C/c1cccs1.O=C(O)C(O)C(O)C(=O)O [Pyrantel tartrate] | -2.4 | -36.527 | 4 | 0 |  | -2.1 | IC50 (recombinant human AChE [1]; read-out: IC50): 38.9 µM; IC50 (AChE in SH-SY5Y cells; read-out: IC50): 30.9 µM and 27.5 µM and 15.5 µM
COCCCOc1ccnc(C[S+]([O-])c2nc3ccccc3[nH]2)c1C (centres unmarked) [Rabeprazole sodium] | 4 | -15.052 | 1.1 | 92.667 | 63.1 µM and 70.7 µM | -2.1 and -2.2 | 
Cc1nc2n(c(=O)c1CCN1CCC(c3noc4cc(F)ccc34)CC1)CCCC2 [Risperidone] | 4 | -13.373 | 4 | 0 |  | -1.1 and -2.1 | 
CCCN(CCc1cccs1)[C@H]1CCc2c(O)cccc2C1 [Rotigotine] | -2.2 | -40.728 | 4 | 0 | 15.5 µM and 13.8 µM | -2.1 | IC50 (recombinant human AChE [1]; IC50 (uM)): 34.7 µM
C[n+]1cc2c3c(ccc2c2ccc4cc5c(cc4c21)OCO5)OCO3 [Sanguinarine] | -2.2 | -68.744 | 4 | -7.894 | 15.1 µM and 12 µM and 10.7 µM | -2.1 | IC50 (recombinant human AChE [1]; IC50 (uM)): 16.9 µM
CCN(CC)CCNC(=O)c1c(C)[nH]c(/C=C2\C(=O)Nc3ccc(F)cc32)c1C [Sunitinib malate, reference compound] | -1.1 | -78.177 | -2.2 | -53.539 |  | -1.1 | IR or R (recombinant human AChE [4]): R
COc1cc2c(N3CCN(C(=O)Nc4ccc(OC(C)C)cc4)CC3)ncnc2cc1OCCCN1CCCCC1 [Tandutinib, reference compound] | -2.1 | -82.501 | 4 | -26.796 |  | -2.1 | Efficacy (recombinant human AChE [4]): -90.305; IR or R (recombinant human AChE [4]): R
COc1cc2nc(N3CCN(C(=O)C4CCCO4)CC3)nc(N)c2cc1OC (centres unmarked) [Terazosin hydrochloride] | -2.2 | -49.646 | 4 | 0 | 30.9 µM and 27.5 µM |  | IC50 (recombinant human AChE [1]; IC50 (uM)): 38.9 µM
CCCCCCCCCCCCCC[n+]1ccccc1 [Tetradecylpyridinium bromide] | -2.1 | -102.568 | 4 | 0 | 31.7 µM and 39.9 µM | -1.1 and -2.1 | IC50 (recombinant human AChE [1]; IC50 (uM)): 56.4 µM
CN(C)C(=S)SC(=S)N(C)C [Tetramethylthiuram monosulfide] | 4 |  | 4 |  | 31.7 µM and 72.8 µM and 63.3 µM and 56.4 µM |  | 
CN(C)C(=S)SSC(=S)N(C)C [Thiram] | 4 |  | 4 |  | 38.9 µM and 88.1 µM and 78.5 µM and 89.4 µM and 71 µM |  | 
COc1cc(C(=O)NCc2ccc(OCCN(C)C)cc2)cc(OC)c1OC [Trimethobenzamide hydrochloride] | -1.1 | -75.922 | 4 | -14.276 |  | -2.1 and -1.1 | 
O=P(Oc1ccccc1)(Oc1ccccc1)Oc1ccccc1 [Triphenyl phosphate] | -1.1 |  | -2.1 |  | 20 µM and 19.9 µM and 22.3 µM and 35.6 µM and 31.6 µM and 28.1 µM and 25.2 µM | -1.1 and -2.1 | 
COP(=O)(OC)O/C(=C\Cl)c1cc(Cl)c(Cl)cc1Cl [Z-Tetrachlorvinphos] | -2.4 | -30.752 | 4 | 0 | 63.3 µM and 79.6 µM | -2.2 | IC50 (recombinant human AChE [1]; IC50 (uM)): 71 µM; IC50 (AChE in SH-SY5Y cells; read-out: IC50): 44.8 µM
COc1cc(N)c(Cl)cc1C(=O)NC1CN2CCC1CC2.Cl (centres unmarked) [Zacopride hydrochloride] | 4 | 0 | 4 | 0 |  | -2.2 | 
O=C(CCC1CCN(Cc2ccccc2)CC1)c1ccc2c(c1)NCCCC2.O=C(O)/C=C/C(=O)O [Zanapezil fumerate, reference compound] | -1.1 | -97.056 | -1.1 | -97.158 |  | -1.1 | IR or R (recombinant human AChE [4]): R
O=C(O)/C=C\C(=O)O.O=C(O)/C=C\C(=O)O.c1cc(CN2CCCCC2)cc(OCCCNc2nc3ccccc3s2)c1 [Zolantidine dimaleate] | -2.1 | -71.468 | 4 | 0 |  | -2.1 | IC50 (recombinant human AChE [1]; read-out: IC50): 27.5 µM; IC50 (AChE in SH-SY5Y cells; read-out: IC50): 13.8 µM and 15.5 µM
CNC(=O)Oc1cccc2ccccc12 [carbaryl] |  |  |  |  |  |  | reversibility of AChE inhibition (result in words) (recombinant human AChE [4]): significant IC50 difference at 60 min
